Assay results from patent US20090176837A1, “COMPOUNDS WITH ACTIVITY AT RETINOIC ACID RECEPTORS” (SONY CORPORATION, priority 2006, published 2009).

How the values were obtained:
RARβ2 = biological target: T1, RARβ2 (Homo sapiens, UniProt P10826); assay: Receptor Selection and Amplification Technology (R-SAT) functional receptor assay; assay type: cell-based; settings: for pEC50: Table 1; for % Eff.: Table 1, efficacy relative to the maximal response of the reference ligand Am-580; for Emax: Table 1, efficacy relative to the maximal response of the reference ligand Am-580, read-out: % Eff.; for EC50: Table 1, read-out: pEC50 (converted)
T1 construct: expressed in transfected cells
T1 sequence (P10826 1-448 isoform P10826-2): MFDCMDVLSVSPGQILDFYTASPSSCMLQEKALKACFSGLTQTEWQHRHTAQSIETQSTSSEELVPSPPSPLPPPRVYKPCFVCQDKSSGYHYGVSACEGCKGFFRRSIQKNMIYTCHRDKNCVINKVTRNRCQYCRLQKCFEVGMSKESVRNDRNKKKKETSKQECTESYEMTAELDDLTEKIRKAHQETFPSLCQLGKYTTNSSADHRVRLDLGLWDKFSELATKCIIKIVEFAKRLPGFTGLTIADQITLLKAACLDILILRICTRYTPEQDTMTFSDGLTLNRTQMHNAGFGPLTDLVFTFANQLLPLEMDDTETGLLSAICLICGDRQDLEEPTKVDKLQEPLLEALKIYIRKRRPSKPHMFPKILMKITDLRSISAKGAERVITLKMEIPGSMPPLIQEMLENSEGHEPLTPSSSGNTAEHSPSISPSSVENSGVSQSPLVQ
Excerpt: The functional receptor assay, Receptor Selection and Amplification Technology (R-SAT), was used to investigate the pharmacological properties of known and novel RARβ agonists and antagonists.
Efficacy is relative to the maximal response of the reference ligand, Am-580.

NTERA-2 Cells = assay: Induction of neuronal differentiation in NTERA-2 cells; assay type: cell-based

Molecule | pEC50 (RARβ2) | % Eff. (RARβ2) [%] | neuronal differentiation (NTERA-2 Cells) | Emax (RARβ2) [%] | EC50 (RARβ2) [nM]
CCCCCCCCc1ccc(-c2ccc(C(=O)O)cc2)cc1 [Compound 6] | 7.73 | 104 | induce neuronal differentiation | – | –
CCCCCCCCOc1ccc(-c2ccc(C(=O)NCCC#N)cc2)cc1 [Compound 51, 4′-Octyloxy-biphenyl-4-carboxylic acid (2-cyano-ethyl)-amide] | – | – | – | 59 | 309
CCCCCCCCc1ccc(-c2ccc(C(=O)O)cc2)cc1 [Compound 53, 4′-Octyl[1,1′-biphenyl]-4-carboxylic acid] | – | 99 | – | – | 513
CCCCCCCCOc1ccc(-c2ccc(C(=O)NCCc3ccccn3)cc2)cc1 [Compound 54, 4′-Octyloxy-biphenyl-4-carboxylic acid (2-pyridin-2-yl-ethyl)-amide] | – | – | – | 39 | 661
CCCCCCCCc1ccc(-c2ccc(C(=O)O)c(C)c2)cc1 [Compound 55, 3-Methyl-4′-octyl[1,1′-biphenyl]-4-carboxylic acid] | – | – | – | 84 | 676
Cc1sc(-c2ccc(C(=O)O)cc2)nc1OCC(=O)NC1CCCCCC1 [Compound 56, 4-(4-Cycloheptycarbamoylmethoxy-5-methyl-thiazol-2-yl)-benzoic acid] | – | – | – | 105 | 676
Cc1sc(-c2ccc(C(=O)O)cc2)nc1OCC(=O)NC(C)CCC(C)C (stereo not drawn) [Compound 57, 4-[4-[2-[(1,4-Dimethylpentyl)amino]-2-oxoethoxy]-5-methyl-2-thiazolyl]-benzoic acid] | – | – | – | 77 | 676
Cc1sc(-c2ccc(C(=O)O)cc2)nc1OCC(=O)NC1CCC(C)CC1 (stereo not drawn) [Compound 58, 4-[5-Methyl-4-[2-[(4-methylcyclohexyl)amino]-2-oxoethoxy]-2-thiazolyl]-benzoic acid] | – | – | – | 66 | 708
CCCCCCCc1ccc(-c2ccc(C(=O)NCCc3ccccn3)cc2)cc1 [Compound 59, 4′-Heptyl-biphenyl-4-carboxylic acid (2-pyridin-2-yl-ethyl)-amide] | – | – | – | 35 | 776
CCCCCCCCc1ccc(-c2ccc(C(=O)NS(C)(=O)=O)cc2)cc1 [Compound 60, N-(4′-Octyl-biphenyl-4-carbonyl)-methanesulfonamide] | – | – | – | 51 | 832
Cc1sc(-c2ccc(C(=O)O)cc2)nc1OCC(=O)NC1CCCC1 [Compound 61, 4-(4-Cyclopentylcarbamoylmethoxy-5-methyl-thiazol-2-yl)-benzoic acid] | – | – | – | 39 | 832
CCCCNC(=O)COc1nc(-c2ccc(C(=O)O)cc2)sc1C [Compound 62, 4-(4-Butylcarbamoylmethoxy-5-methyl-thiazol-2-yl)-benzoic acid] | – | – | – | 37 | 832
CCCCCCc1ccc(-c2ccc(C(=O)Nc3ccc(C)cn3)cc2)cc1 [Compound 63, 4′-Hexyl-biphenyl-4-carboxylic acid (5-methyl-pyridin-2-yl)-amide] | – | – | – | 36 | 891
CCCCCCCCc1ccc(-c2ccc(C(=O)OCCc3ccccn3)cc2)cc1 [Compound 68] | – | – | induce neuronal differentiation | – | –
Imidazol-1-yl-(4-octyl-biphenyl-4-yl)-methanone [Compound 8] | 7.66 | 79 | – | – | –
